Data taken from ChEMBL document CHEMBL1146947, “Synthesis and ocular effects of imidazole nitrolic acid and amidoxime esters” (Bioorg Med Chem Lett, 2006).
The source made the active and inactive calls. The rule behind the calls is not given here.

Experiments:
[1] = molecular target: T1, Soluble guanylate cyclase (Homo sapiens) (UniProt Q02153+O75343+P33402+Q02108); test: Effect on cGMP production in porcine iris-ciliary body at 100 uM; format: functional; conditions: Sus scrofa, target entry is the homologue from another species
Oryctolagus cuniculus [2] = test: Lowering of intraocular pressure in rabbit eye at 10 mM administered topically; format: functional, organism-based
[3] = molecular target: T1, Soluble guanylate cyclase (Homo sapiens); test: Effect on cGMP production in porcine iris-ciliary body at 10 uM; format: functional; conditions: Sus scrofa, target entry is the homologue from another species
Oryctolagus cuniculus [4] = species: Oryctolagus cuniculus; test: Lowering of intraocular pressure in rabbit eye intravitreally injected with 10 mM; format: functional, organism-based

Activity [1] | Activity [3] | SMILES | Activity (Oryctolagus cuniculus [2]) | Activity (Oryctolagus cuniculus [4])
0.24 pmol/mg | 0.23 pmol/mg | CCCC(=O)ONC(=N)c1cncn1C | inactive | 
0.78 pmol/mg | 0.45 pmol/mg | CC(=O)O/N=C(/c1c[nH]cn1)[N+](=O)[O-] | inactive | 
0.38 pmol/mg | 0.5 pmol/mg | CCCC(=O)O/N=C(/c1c[nH]cn1)[N+](=O)[O-] | inactive | 
 |  | CC(=O)ONC(=N)c1cncn1C | inactive | inactive
0.24 pmol/mg | 0.63 pmol/mg | Cn1cncc1C(=N)NOC(=O)C(C)(C)C | inactive | 
0.73 pmol/mg | 0.36 pmol/mg | CC(C)(C)C(=O)O/N=C(/c1c[nH]cn1)[N+](=O)[O-] | inactive | 
